From ChEMBL document CHEMBL1201862, “PubChem BioAssay data set” (2004)
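Cultured in 96-well plates, cells were exposed to test compound for 48 hours across five concentrations. Here, GI50 denotes the concentration required for 50% inhibition of growth.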 Activity calls are given as the source filed them. Cut-off read from the data, not from the text of the source: active = GI50 up to about 1.1 µM and inactive = higher.

How the values were obtained:
Assay in all cases: growth of human tumour cells (NCI), 48 h
[1] = system: HCT-116
[2] = system: COLO 205
[3] = system: RPMI-8226
[4] = system: SNB-19
[5] = system: Malme-3M
[6] = system: SN12C
[7] = system: CCRF-CEM
[8] = system: SK-MEL-28
[9] = system: EKVX
[10] = system: NCI-H460
[11] = system: SF-295
[12] = system: SK-OV-3
[13] = system: HOP-62
[14] = system: HCC 2998
[15] = system: OVCAR-4
[16] = system: SNB-78
[17] = system: HL-60
[18] = system: M19-MEL
[19] = system: NCI-H226
[20] = system: A549
[21] = system: SR
[22] = system: M14
[23] = system: A498
[24] = system: HT-29
[25] = system: SW-620
[26] = system: LXFL 529
[27] = system: NCI-H23
[28] = system: CAKI-1
[29] = system: SF-268
[30] = system: UACC-62
[31] = system: DLD-1
[32] = system: OVCAR-3
[33] = system: HOP-18
[34] = system: UO-31
[35] = system: SK-MEL-5
[36] = system: SF-539
[37] = system: KM12
[38] = system: 786-0
[39] = system: IGROV-1
[40] = system: RXF 393
[41] = system: HCT-15
[42] = system: KM-20L2
[43] = system: SNB-75
[44] = system: TK-10
[45] = system: K562
[46] = system: ACHN
[47] = system: UACC-257
[48] = system: U-251
[49] = system: OVCAR-8
[50] = system: XF498
[51] = system: SK-MEL-2
[52] = system: OVCAR-5
[53] = system: LOX IMVI
[54] = system: HOP-92
[55] = system: MOLT-4

SMILES: CCCCCCCCCCCCCCCC(=O)N[C@H]1CCc2cc(OC)c(OC)c(OC)c2-c2ccc(SC)c(=O)cc21
- GI50 [1]: 338 nM (active)
- GI50 [2]: 187 nM (active)
- GI50 [3]: 3640 nM (inactive)
- GI50 [4]: 973 nM (active)
- GI50 [5]: 762 nM (active)
- GI50 [6]: 649 nM (active)
- GI50 [7]: 356 nM (active)
- GI50 [8]: 782 nM (active)
- GI50 [9]: 454 nM (active)
- GI50 [10]: 376 nM (active)
- GI50 [11]: 664 nM (active)
- GI50 [12]: 1670 nM (inactive)
- GI50 [13]: 7730 nM (inactive)
- GI50 [14]: 297 nM (active)
- GI50 [15]: 3240 nM (inactive)
- GI50 [16]: 492 nM (active)
- GI50 [17]: 279 nM (active)
- GI50 [18]: 458 nM (active)
- GI50 [19]: 196 nM (active)
- GI50 [20]: 486 nM (active)
- GI50 [21]: 258 nM (active)
- GI50 [22]: 279 nM (active)
- GI50 [23]: 692 nM (active)
- GI50 [24]: 253 nM (active)
- GI50 [25]: 450 nM (active)
- GI50 [26]: 486 nM (active)
- GI50 [27]: 290 nM (active)
- GI50 [28]: 21100 nM (inactive)
- GI50 [29]: 540 nM (active)
- GI50 [30]: 601 nM (active)
- GI50 [31]: 365 nM (active)
- GI50 [32]: 225 nM (active)
- GI50 [33]: 933 nM (active)
- GI50 [34]: 3520 nM (inactive)
- GI50 [35]: 500 nM (active)
- GI50 [36]: 294 nM (active)
- GI50 [37]: 290 nM (active)
- GI50 [38]: 2360 nM (inactive)
- GI50 [39]: 2580 nM (inactive)
- GI50 [40]: 3020 nM (inactive)
- GI50 [41]: 1150 nM
- GI50 [42]: 186 nM (active)
- GI50 [43]: 238 nM (active)
- GI50 [44]: 492 nM (active)
- GI50 [45]: 325 nM (active)
- GI50 [46]: 2200 nM (inactive)
- GI50 [47]: 527 nM (active)
- GI50 [48]: 294 nM (active)
- GI50 [49]: 557 nM (active)
- GI50 [50]: 769 nM (active)
- GI50 [51]: 1460 nM (inactive)
- GI50 [52]: 15200 nM (inactive)
- GI50 [53]: 2450 nM (inactive)
- GI50 [54]: 891 nM (active)
- GI50 [55]: 1230 nM (inactive)
